Measurements as given in patent publication US12667602B2, “Composition for preventing, treating or alleviating diabetes, comprising LGI3-derived peptide as an active ingredient” (CHUNG-ANG UNIVERSITY INDUSTRY-ACADEMIC COOPERATION …, priority 2019, dated 2026).
Converted amounts (≈) assume the structure as drawn. Residues, ends and D or L forms follow the SMILES beside them.

Experiment: Solubility in water
Type: physicochemical

Structure (SMILES) | solubility [µg/mL]
CC(C)C[C@H](NC(=O)[C@H](C)NC(=O)[C@H](CCC(N)=O)NC(=O)[C@H](Cc1c[nH]cn1)NC(=O)[C@H](CO)NC(=O)[C@H](Cc1ccc(O)cc1)NC(=O)[C@H](Cc1ccccc1)NC(=O)CNC(=O)[C@H](CC(N)=O)NC(=O)[C@@H](N)CCC(N)=O)C(=O)N[C@@H](Cc1c[nH]cn1)C(=O)N[C@@H](C)C(=O)N[C@@H](Cc1c[nH]c2ccccc12)C(=O)N[C@@H](Cc1c[nH]cn1)C(=O)N[C@@H](CCCNC(=N)N)C(=O)O [P25] (H-QNGFYSHQALHAWHR-OH; N-terminus and C-terminus assumed) | 10000 (≈ 5400 µM)
CC(C)C[C@H](NC(=O)[C@H](CCC(=O)O)NC(=O)[C@H](CCC(N)=O)NC(=O)[C@H](Cc1ccccc1)NC(=O)[C@H](CCCNC(=N)N)NC(=O)[C@@H](NC(=O)[C@H](Cc1ccccc1)NC(=O)[C@H](CCCCN)NC(=O)[C@H](CCC(N)=O)NC(=O)[C@H](CCCNC(=N)N)NC(=O)CNC(=O)[C@H](CCC(=O)O)NC(=O)[C@@H](N)CC(=O)O)C(C)C)C(=O)N[C@@H](C)C(=O)N[C@H](C(=O)O)C(C)C [P34] (H-DEGRQKFVRFQELAV-OH; N-terminus and C-terminus assumed) | 1000 (≈ 549 µM)
